Test results: the NIST ThermoML archive (doi:10.1016/j.jct.2009.06.014)
Numbers after ± are expanded uncertainties.

Assay: xn = mol fraction of the nth substance listed
Settings: 101 kPa, Liquid, Vibrating tube method, x1 = 1

mass density (323.15 K): 988.02 ± 0.2 kg/m3
mass density (328.15 K): 985.68 ± 0.21 kg/m3
mass density (333.15 K): 983.17 ± 0.21 kg/m3
SMILES: O [water] + C1CCOC1
